Results taken from patent publication US20110183978A1, “Phenylpyri(mi)dinylazoles” (Bayer CropScience AG, priority 2009, published 2011).

Columns and labels:
Rhynchosporium secalis = assay: Example S: in vivo test on Rhynchosporium secalis (leaf scald in barley/protective); conditions: 336 h, barley, protective, 1000 ppm active substance, assessed 14 days after inoculation, read-out: % Wirkungsgrad (activity level)
Procedure, shortened: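 Protective test: young barley plants were sprayed with active substance in dimethylacetamide/alkylaryl polyglycol ether emulsion diluted with water. Once dry, plants were inoculated with R. secalis spore suspension. Assessment was made 14 days after inoculation.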

[1] = tested on: Mycosphaerella graminicola; assay: Example G: in vivo test on Mycosphaerella graminicola (wheat leaf blotch disease); conditions: Zymoseptoria tritici, wheat plants sprayed 24 hours before inoculation, scored after 21 to 28 days, read-out: % Wirkungsgrad
Procedure, shortened: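 Scipion wheat at first-leaf stage (10 cm) was sprayed with aqueous active-substance suspension, then inoculated 24 hours later with Mycosphaerella graminicola spores (500,000 spores per ml) from 7 day-old culture. Disease was scored after 21 to 28 days against untreated sprayed controls.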

Pyricularia grisea = type: in vivo; conditions: 500 ppm; rice plants sprayed 24 hours before inoculation; scored after 6 days

## CC(C)C(=O)Nc1cc(-c2cn(C(C)C)nc2-c2ccc(F)cc2)ccn1 [Compound 84]
Rhynchosporium secalis
  pest or weed control at 1000 ppm: 90%
[1]
  pest or weed control at 500 ppm: 98%

## CC(C)n1cc(-c2ccnc(NC(=O)C3CC3)c2)c(-c2ccc(F)cc2)n1 [Compound 86]
Rhynchosporium secalis
  pest or weed control at 1000 ppm: 86%
[1]
  pest or weed control at 500 ppm: 94%

## CC(C)Cn1cc(-c2ccncc2)c(-c2ccc(F)cc2)n1 [Compound 1]
Pyricularia grisea
  % Activity level: 82%
